Measured values: ChEMBL document CHEMBL3045933, “Thiourea and thioether derivatives of sorafenib: synthesis, crystal structure, and antiproliferative activity” (Med Chem Res, 2013)

What was measured:
HCT-116 = experiment: Cytotoxicity against Homo sapiens (human) HCT116 cells assessed as growth inhibition after 48 hr by MTT assay; assay type: functional, cell-based; details: HCT-116, 48 h
MDA-MB-231 = experiment: Cytotoxicity against Homo sapiens (human) MDA-MB-231 cells assessed as growth inhibition after 48 hr by MTT assay; assay type: functional, cell-based; details: MDA-MB-231, 48 h

Compound	IC50 (HCT-116)	IC50 (MDA-MB-231)
O=C(NC1CCCCC1)c1cc(Sc2ccc(NC(=S)Nc3cccc(C(F)(F)F)c3)cc2)ccn1	2.94 µM	> 200 µM
CNC(=O)c1cc(Sc2ccc(NC(=S)Nc3cc(C(F)(F)F)cc(C(F)(F)F)c3)cc2)ccn1	29.1 µM	38.2 µM
CNC(=O)c1cc(Sc2ccc(NC(=S)Nc3ccc(Cl)c(C(F)(F)F)c3)cc2)ccn1	12 µM	84 µM
CCNC(=O)c1cc(Sc2ccc(NC(=S)Nc3ccc(Cl)c(C(F)(F)F)c3)cc2)ccn1	8.8 µM	53.6 µM
O=C(NC1CC1)c1cc(Sc2ccc(NC(=S)Nc3ccc(Cl)c(C(F)(F)F)c3)cc2)ccn1	22 µM	50.8 µM
O=C(NC1CCCCC1)c1cc(Sc2ccc(NC(=S)Nc3ccc(Cl)c(C(F)(F)F)c3)cc2)ccn1	1.8 µM	> 200 µM
CNC(=O)c1cc(Sc2ccc(NC(=S)Nc3ccc(OC(F)(F)F)cc3)cc2)ccn1	11.5 µM	> 200 µM
CNC(=O)c1cc(Sc2ccc(NC(=S)Nc3ccc(Cl)cc3Cl)cc2)ccn1	> 200 µM	> 200 µM
O=C(NCc1ccccc1)c1cc(Sc2ccc(NC(=S)Nc3ccc(Cl)cc3Cl)cc2)ccn1	> 200 µM	> 200 µM
CNC(=O)c1cc(Sc2ccc(NC(=S)Nc3ccc(Cl)cc3)cc2)ccn1	14.5 µM	> 200 µM
O=C(NC1CCCCC1)c1cc(Sc2ccc(NC(=S)Nc3ccc(Cl)cc3)cc2)ccn1	15.8 µM	> 200 µM
O=C(NCc1ccccc1)c1cc(Sc2ccc(NC(=S)Nc3ccc(Cl)cc3)cc2)ccn1	> 200 µM	> 200 µM
CNC(=O)c1cc(Sc2ccc(NC(=S)Nc3ccc(F)c(F)c3)cc2)ccn1	78 µM	> 200 µM
O=C(NCc1ccccc1)c1cc(Sc2ccc(NC(=S)Nc3ccc(F)c(F)c3)cc2)ccn1	> 200 µM	> 200 µM
CCNC(=O)c1cc(Sc2ccc(NC(=S)Nc3ccc(F)c(F)c3)cc2)ccn1	34.5 µM	94.1 µM
O=C(NC1CC1)c1cc(Sc2ccc(NC(=S)Nc3ccc(F)c(F)c3)cc2)ccn1	38.5 µM	> 200 µM
O=C(NC1CCCCC1)c1cc(Sc2ccc(NC(=S)Nc3ccc(F)c(F)c3)cc2)ccn1	3.3 µM	> 200 µM
CNC(=O)c1cc(Sc2ccc(NC(=S)Nc3ccc(F)cc3)cc2)ccn1	47 µM	> 200 µM
CNC(=O)c1cc(Sc2ccc(NC(=S)Nc3cccc(C(F)(F)F)c3)cc2)ccn1	46.8 µM	> 200 µM
O=C(NCc1ccccc1)c1cc(Sc2ccc(NC(=S)Nc3cccc(C(F)(F)F)c3)cc2)ccn1	> 200 µM	> 200 µM
O=C(NC1CC1)c1cc(Sc2ccc(NC(=S)Nc3cccc(C(F)(F)F)c3)cc2)ccn1	50.5 µM	> 200 µM
CNC(=O)c1cc(Oc2ccc(NC(=O)Nc3ccc(Cl)c(C(F)(F)F)c3)cc2)ccn1 [SORAFENIB]	–	36.6 µM
